Experimental findings from publication PMC10759180 (RSC Advances, 2024) are described below.

One assay concerns the target α-amylase. In words: In vitro α-amylase inhibition assay. Format: biochemical. To be noted: read-out: α-Amylase activity IC50 ± SEM; mean ± SEM, triplicate; iodine starch method, pH 6.8, 50 °C, 30 minutes.
In the next assay the test system is Escherichia coli. Nature of the assay: Antibacterial disc diffusion assay, Escherichia coli. Format: cell-based. As to conditions: for Antibacterial zone of inhibition, Escherichia coli: disc diffusion, samples 100 μM, kanamycin 10 μM, 24 hours at 37 °C.
The next assay deals with Staphylococcus aureus. In words: Antibacterial disc diffusion assay, Staphylococcus aureus. As to conditions: for Antibacterial zone of inhibition, Staphylococcus aureus: disc diffusion, samples 100 μM, kanamycin 10 μM, 24 hours at 37 °C. Format: cell-based. (Agar diffusion results depend on both activity and mobility in agar.)
The next assay relates to Pseudomonas aeruginosa. In words: Antibacterial disc diffusion assay, Pseudomonas aeruginosa. Format: cell-based. As to conditions: samples 100 μM, kanamycin 10 μM, 24 hours at 37 °C.
The next assay deals with Bacillus subtilis. In words: Antibacterial disc diffusion assay, Bacillus subtilis. Type of assay: cell-based. As to conditions: samples 100 μM, kanamycin 10 μM, 24 hours at 37 °C.
In a further assay the test system is Candida albicans. Nature of the assay: Antifungal disc diffusion assay, Candida albicans. Type of assay: cell-based. To be noted: read-out: Antifungal zone of inhibition, Candida albicans.
A further assay concerns the target urease (Canavalia ensiformis, UniProt P07374). As to conditions: read-out: Urease activity IC50 ± SEM; pH 8.2.

Each structure is given as a SMILES string. Entries after “also recorded” stand apart in the source; their conditions may differ.

urease, sequence (P07374 whole entry, looked up): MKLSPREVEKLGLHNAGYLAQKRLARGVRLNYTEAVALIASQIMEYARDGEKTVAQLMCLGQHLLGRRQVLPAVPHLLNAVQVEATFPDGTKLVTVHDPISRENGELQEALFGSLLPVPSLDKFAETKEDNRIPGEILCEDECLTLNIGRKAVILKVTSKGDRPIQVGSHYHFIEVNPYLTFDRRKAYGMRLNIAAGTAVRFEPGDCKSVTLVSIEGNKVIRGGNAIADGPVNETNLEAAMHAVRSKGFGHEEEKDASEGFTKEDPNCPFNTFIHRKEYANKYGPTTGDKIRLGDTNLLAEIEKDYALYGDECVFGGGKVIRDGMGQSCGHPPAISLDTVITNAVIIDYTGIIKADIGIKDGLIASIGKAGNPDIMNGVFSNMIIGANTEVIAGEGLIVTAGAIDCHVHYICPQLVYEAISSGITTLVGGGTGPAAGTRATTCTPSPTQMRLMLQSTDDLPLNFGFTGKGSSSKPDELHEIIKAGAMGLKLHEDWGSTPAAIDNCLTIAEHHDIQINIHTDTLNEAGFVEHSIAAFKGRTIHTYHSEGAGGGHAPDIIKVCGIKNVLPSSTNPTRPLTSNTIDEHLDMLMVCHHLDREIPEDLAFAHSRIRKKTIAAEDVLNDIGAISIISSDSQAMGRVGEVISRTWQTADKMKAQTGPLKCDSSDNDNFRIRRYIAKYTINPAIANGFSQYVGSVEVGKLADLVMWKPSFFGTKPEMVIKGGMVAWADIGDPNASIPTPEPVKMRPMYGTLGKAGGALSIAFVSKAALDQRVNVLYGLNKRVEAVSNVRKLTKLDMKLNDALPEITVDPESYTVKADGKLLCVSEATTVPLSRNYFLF

What is called IC50 is the concentration that gives 50% inhibition. Regarding `Cc1ccc(C(=O)N(C(=O)c2ccc(C)cc2)C(=S)N2N=C(c3ccc(F)cc3)CC2c2ccc(F)cc2)cc1` (stereo not shown) [Compound 5a, N-(3,5-Bis(4-fluorophenyl)-4,5-dihydro-1H-pyrazole-1-carbonothioyl)-4-methyl-N-(4-methylbenzoyl)benzamide], the IC50 at α-amylase amounted to 118.4 ± 0.64 µM.

As to `Cc1ccc(C(=O)N(C(=O)c2ccc(C)cc2)C(=S)N2N=C(c3ccc(F)cc3)CC2c2cccc(F)c2)cc1` (stereo not shown) [Compound 5b, N-(5-(3-Fluorophenyl)-3-(4-fluorophenyl)-4,5-dihydro-1H-pyrazole-1-carbonothioyl)-4-methyl-N-(4-methylbenzoyl)benzamide], on α-amylase, the IC50 turned out to be 99.3 ± 0.62 µM.

As usually defined, the zone of inhibition is the extent of the growth-free halo in a diffusion test. Consider `Cc1ccc(C(=O)N(C(=O)c2ccc(C)cc2)C(=S)N2N=C(c3ccccc3)CC2c2ccc(F)cc2)cc1` (stereo not shown) [Compound 5d, N-(5-(4-Fluorophenyl)-3-phenyl-4,5-dihydro-1H-pyrazole-1-carbonothioyl)-4-methyl-N-(4-methylbenzoyl)benzamide], for which the IC50 on α-amylase was 104 ± 3.18 µM. Besides, the zone of inhibition at 100 µM is 7 mm in the assay with Escherichia coli (Escherichia coli, 24 h, read-out: Antibacterial zone of inhibition, Escherichia coli) and 10 mm with Staphylococcus aureus (Staphylococcus aureus, 24 h, read-out: Antibacterial zone of inhibition, Staphylococcus aureus). The “Antibacterial zone of inhibition, Escherichia coli” value in the assay on Escherichia coli is given as “significant antibacterial activity; also recorded: excellent bacterial inhibition zone”. In addition, the “Antibacterial zone of inhibition, Staphylococcus aureus” value in the assay with Staphylococcus aureus is given as “significant antibacterial activity; also recorded: excellent bacterial inhibition zone”.

For the compound `Cc1ccc(C(=O)N(C(=O)c2ccc(C)cc2)C(=S)N2N=C(c3ccc(Br)cc3)CC2c2ccc(F)cc2)cc1` (stereo not shown) [Compound 5e, N-(3-(4-Bromophenyl)-5-(4-fluorophenyl)-4,5-dihydro-1H-pyrazole-1-carbonothioyl)-4-methyl-N-(4-methylbenzoyl)benzamide], the IC50 on α-amylase stood at 97.4 ± 1.53 µM.

Take `Cc1ccc(C(=O)N(C(=O)c2ccc(C)cc2)C(=S)N2N=C(c3ccc(Br)cc3)CC2c2cccc(F)c2)cc1` (stereo not shown) [Compound 5f, N-(3-(4-Bromophenyl)-5-(3-fluorophenyl)-4,5-dihydro-1H-pyrazole-1-carbonothioyl)-4-methyl-N-(4-methylbenzoyl)benzamide]: the IC50 on α-amylase is 90.3 ± 1.08 µM.

For the compound `Cc1ccc(C(=O)N(C(=O)c2ccc(C)cc2)C(=S)N2N=C(c3ccc(Cl)cc3)CC2c2ccc(Cl)cc2)cc1` (stereo not shown) [Compound 5g, N-(3,5-Bis(4-chlorophenyl)-4,5-dihydro-1H-pyrazole-1-carbonothioyl)-4-methyl-N-(4-methylbenzoyl)benzamide], on α-amylase, the IC50 turned out to be 131 ± 1.56 µM.

On to `Cc1ccc(C(=O)N(C(=O)c2ccc(C)cc2)C(=S)N2N=C(c3ccccc3)CC2c2ccc(C)cc2)cc1` (stereo not shown) [Compound 5h, 4-Methyl-N-(4-methylbenzoyl)-N-(3-phenyl-5-(p-tolyl)-4,5-dihydro-1H-pyrazole-1-carbonothioyl)benzamide], for which the IC50 on α-amylase came to 121 ± 3.75 µM.

Turning to `Cc1ccc(C(=O)N(C(=O)c2ccc(C)cc2)C(=S)N2N=C(c3ccc(C)cc3)CC2c2ccc(F)cc2)cc1` (stereo not shown) [Compound 5i, N-(5-(4-Fluorophenyl)-3-(p-tolyl)-4,5-dihydro-1H-pyrazole-1-carbonothioyl)-4-methyl-N-(4-methylbenzoyl)benzamide], the IC50 at α-amylase was determined as 114.6 ± 0.28 µM.

Turning to `Cc1ccc(C(=O)N(C(=O)c2ccc(C)cc2)C(=S)N2N=C(c3ccc(C)cc3)CC2c2ccc(Cl)cc2)cc1` (stereo not shown) [Compound 5j, N-(5-(4-Chlorophenyl)-3-(p-tolyl)-4,5-dihydro-1H-pyrazole-1-carbonothioyl)-4-methyl-N-(4-methylbenzoyl)benzamide], the IC50 on α-amylase worked out at 110 ± 1.56 µM.

Regarding `NC[C@H]1O[C@H](O[C@H]2[C@H](O)[C@@H](O[C@H]3O[C@H](CO)[C@@H](O)[C@H](N)[C@H]3O)[C@H](N)C[C@@H]2N)[C@H](O)[C@@H](O)[C@@H]1O` [Kanamycin, reference compound], in the assay on Escherichia coli, the “Antibacterial zone of inhibition, Escherichia coli” value is on record as 16 mm. The “Antibacterial zone of inhibition, Pseudomonas aeruginosa” value in the assay with Pseudomonas aeruginosa is given as 20 mm. Further, the “Antibacterial zone of inhibition, Bacillus subtilis” value in the assay on Bacillus subtilis was 22 mm. In addition, in the assay on Staphylococcus aureus, the “Antibacterial zone of inhibition, Staphylococcus aureus” value is 18 mm.

`CN(C/C=C/C#CC(C)(C)C)Cc1cccc2ccccc12` [Terbinafine]: the zone of inhibition at 10 µM with Candida albicans came out at 20 mm.

For `NC(N)=S` [Thiourea], at urease, the IC50 was found to be 9.8 ± 0.1 µM.
